Results taken from patent US9765075B2, “Substituted bridged urea analogs as sirtuin modulators” (GLAXOSMITHKLINE LLC, priority 2013, dated 2017).
Where a chain is given by its changes, count along the chain named.

Assays:
Assay in all cases: SIRT1 activation dose-response, OAcADPr assay with Ac-p53(W5) substrate
Type in all cases: biochemical
full-length hSIRT1 V224A = biological target: T1, full-length hSIRT1 V224A (Homo sapiens, UniProt Q96EB6, V224A); details: for EC50: hSIRT1 V224A, activation dose-response, Ac-p53(W5) substrate
T1 construct: The following point mutants of full-length hSIRT1 were generated; His6 (C); made in house
T1 sequence (Q96EB6 1-747 V224A): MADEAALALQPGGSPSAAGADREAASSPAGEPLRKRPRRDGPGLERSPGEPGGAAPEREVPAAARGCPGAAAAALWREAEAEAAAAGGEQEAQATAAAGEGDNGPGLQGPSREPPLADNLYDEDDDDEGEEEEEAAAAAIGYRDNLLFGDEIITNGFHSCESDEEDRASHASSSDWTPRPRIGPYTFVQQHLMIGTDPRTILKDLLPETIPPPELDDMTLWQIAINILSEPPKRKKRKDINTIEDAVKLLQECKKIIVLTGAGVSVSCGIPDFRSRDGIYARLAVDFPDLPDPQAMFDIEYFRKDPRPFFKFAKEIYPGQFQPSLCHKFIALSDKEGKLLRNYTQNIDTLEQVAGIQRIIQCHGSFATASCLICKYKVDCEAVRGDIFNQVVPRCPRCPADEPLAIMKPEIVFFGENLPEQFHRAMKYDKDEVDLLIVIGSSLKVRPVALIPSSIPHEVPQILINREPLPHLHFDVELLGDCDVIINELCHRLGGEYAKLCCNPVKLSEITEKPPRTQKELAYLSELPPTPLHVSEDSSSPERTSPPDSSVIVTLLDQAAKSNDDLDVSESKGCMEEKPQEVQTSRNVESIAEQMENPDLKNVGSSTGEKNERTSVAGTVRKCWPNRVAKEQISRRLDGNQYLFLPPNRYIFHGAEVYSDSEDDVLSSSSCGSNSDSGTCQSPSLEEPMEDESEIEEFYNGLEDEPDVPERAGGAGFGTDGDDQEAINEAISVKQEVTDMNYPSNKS
Description: (§1) SIRT1 activation and inhibition assays were run in reaction buffer with 0.05% BSA at 25° C. and analyzed using the OAcADPr assay. Enzyme and compound were pre-incubated for 20 minutes before addition of substrates. […] The dose-dependence of five compounds was tested and the fold-activation data were described by Eq. 1
(§2) [formula] where vx/v0 is the ratio of the reaction rate in the presence (vx) versus absence (v0) of activator (X), RVmax is the relative velocity at infinite activator concentration, EC50 is the concentration of activator required to produce one-half RVmax and b is the minimum value of vx/v0.

full-length hSIRT1 I227A = biological target: T2, full-length hSIRT1 I227A (Homo sapiens, UniProt Q96EB6, I227A); details: for EC50: hSIRT1 I227A, activation dose-response, Ac-p53(W5) substrate
T2 construct: The following point mutants of full-length hSIRT1 were generated; His6 (C); made in house
T2 sequence (Q96EB6 1-747 I227A): T1 sequence (Q96EB6 1-747 V224A) with A224V, I227A
Description: as §1, §2

full-length hSIRT1 E230Q = biological target: T3, full-length hSIRT1 E230Q (Homo sapiens, UniProt Q96EB6, E230Q); details: for EC50: hSIRT1 E230Q, activation dose-response, Ac-p53(W5) substrate
T3 construct: His6 (C); made in house
T3 sequence (Q96EB6 1-747 E230Q): T1 sequence (Q96EB6 1-747 V224A) with A224V, E230Q
Description: as §1, §2

Compound | EC50 fold shift (mutant EC50/wild-type EC50) (full-length hSIRT1 V224A) | RVmax fold shift = (wild-type RVmax−1)/(mutant RVmax−1) (full-length hSIRT1 V224A) | EC50 (full-length hSIRT1 V224A) [nM] | EC50 fold shift (mutant EC50/wild-type EC50) (full-length hSIRT1 I227A) | RVmax fold shift = (wild-type RVmax−1)/(mutant RVmax−1) (full-length hSIRT1 I227A) | EC50 (full-length hSIRT1 I227A) [nM] | EC50 fold shift (mutant EC50/wild-type EC50) (full-length hSIRT1 E230Q) | RVmax fold shift = (wild-type RVmax−1)/(mutant RVmax−1) (full-length hSIRT1 E230Q) | EC50 (full-length hSIRT1 E230Q) [nM]
Cc1cnc2c(NC(=O)N3c4nc(-c5cccc(C(F)(F)F)c5)ccc4N4CC[C@H]3C4)cccc2n1 [Example 8] | 1.87 | 0.79 | 900 | 6.21 | 1.06 | 2980 | 1.21 | 3.07 | 580
O=C(Nc1ccccn1)N1c2nc(-c3cccc(C(F)(F)F)c3)ccc2N2CC[C@H]1C2 [Example 7] | 1.18 | 0.72 | 2600 | 3.07 | 0.85 | 6760 | 1.53 | 3.93 | 3360
